Results published in patent US8178570B2, “Tie-2 modulators and methods of use” (Exelixis, Inc., priority 2003, dated 2012).
pIC50: −log10 of the molar value.

target: Tie-2 (Homo sapiens, UniProt Q02763); assay: Tie-2 tyrosine kinase activity: kinase-dependent ATP consumption (pEY substrate, luciferase/luciferin chemiluminescence) or 33P-ATP incorporation into substrate; type: biochemical; conditions: Tie-2 (human enzyme) inhibition, Table 2, class symbols A-D
How it was run: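 Tie-2 kinase activity is read either as ATP consumption with pEY substrate by luciferase/luciferin chemiluminescence, or as 33P incorporation from 33P-ATP into plate-adsorbed substrate by scintillation counting. IC50 values are binned as A <50 nM, B >50–1000 nM, C >1000–<10,000 nM, and D ≥10,000 nM.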

Tie-2, sequence (Q02763 23-1124): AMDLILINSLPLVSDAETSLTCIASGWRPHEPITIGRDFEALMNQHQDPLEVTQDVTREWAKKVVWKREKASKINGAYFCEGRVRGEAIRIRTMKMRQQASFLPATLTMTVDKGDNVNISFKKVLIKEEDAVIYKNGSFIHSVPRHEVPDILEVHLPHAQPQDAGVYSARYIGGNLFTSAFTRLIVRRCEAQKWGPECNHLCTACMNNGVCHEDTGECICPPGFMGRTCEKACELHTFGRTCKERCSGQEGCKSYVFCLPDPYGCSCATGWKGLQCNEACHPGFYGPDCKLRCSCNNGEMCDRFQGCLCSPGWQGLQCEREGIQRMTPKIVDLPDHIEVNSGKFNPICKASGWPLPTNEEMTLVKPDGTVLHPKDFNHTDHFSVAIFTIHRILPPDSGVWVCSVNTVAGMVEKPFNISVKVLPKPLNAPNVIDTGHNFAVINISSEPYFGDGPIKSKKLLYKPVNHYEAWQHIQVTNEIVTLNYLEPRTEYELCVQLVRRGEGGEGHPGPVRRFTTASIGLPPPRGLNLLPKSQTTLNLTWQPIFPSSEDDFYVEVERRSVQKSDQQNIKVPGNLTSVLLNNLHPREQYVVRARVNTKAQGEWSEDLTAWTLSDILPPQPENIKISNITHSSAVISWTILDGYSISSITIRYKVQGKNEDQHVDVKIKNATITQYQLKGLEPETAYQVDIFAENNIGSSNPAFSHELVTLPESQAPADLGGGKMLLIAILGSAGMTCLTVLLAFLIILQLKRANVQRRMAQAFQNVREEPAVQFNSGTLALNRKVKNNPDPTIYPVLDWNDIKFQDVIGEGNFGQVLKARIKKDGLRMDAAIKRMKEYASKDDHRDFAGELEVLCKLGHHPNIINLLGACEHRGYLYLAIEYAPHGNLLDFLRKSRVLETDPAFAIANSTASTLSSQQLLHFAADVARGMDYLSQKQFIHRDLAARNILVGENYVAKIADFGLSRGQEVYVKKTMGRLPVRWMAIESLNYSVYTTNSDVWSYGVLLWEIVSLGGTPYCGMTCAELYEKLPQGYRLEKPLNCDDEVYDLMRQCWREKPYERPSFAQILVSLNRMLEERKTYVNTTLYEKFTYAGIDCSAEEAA

Row | pIC50 | Compound
1 | ≤ 5.00 | COc1ccc(-c2nc(-c3ccncc3)nn2CCN(C(=O)Nc2cccc(C(F)(F)F)c2)C2CCCC2)cc1Cl [Entry 155, N-(2-{5-[3-chloro-4-(methyloxy)phenyl]-3-pyridin-4-yl-1H-1,2,4-triazol-1-yl}ethyl)-N-cyclopentyl-N′-[3-(trifluoromethyl)phenyl]urea]
2 | ≤ 5.00 | C=CCNC(=O)N(CCn1nc(-c2ccncc2)nc1-c1ccc(OC)c(Cl)c1)C1CCCC1 [Entry 156, N-(2-{5-[3-chloro-4-(methyloxy)phenyl]-3-pyridin-4-yl-1H-1,2,4-triazol-1-yl}ethyl)-N-cyclopentyl-N′-prop-2-en-1-ylurea]
3 | ≤ 5.00 | COc1ccc(-c2nc(-c3ccncc3)nn2CCN(C(=O)Nc2ccccc2C(C)C)C2CCCC2)cc1Cl [Entry 157, N-(2-{5-[3-chloro-4-(methyloxy)phenyl]-3-pyridin-4-yl-1H-1,2,4-triazol-1-yl}ethyl)-N-cyclopentyl-N′-[2-(1-methylethyl)phenyl]urea]
4 | 5.00 to 6.00 | COc1ccc(-c2nc(-c3ccncc3)nn2CCN(C(=O)Nc2cc(F)ccc2C)C2CCCC2)cc1Cl [Entry 158, N-(2-{5-[3-chloro-4-(methyloxy)phenyl]-3-pyridin-4-yl-1H-1,2,4-triazol-1-yl}ethyl)-N-cyclopentyl-N′-(5-fluoro-2-methylphenyl)urea]
5 | 5.00 to 6.00 | COc1ccc(-c2nc(-c3ccncc3)nn2CCN(C(=O)Nc2ccc(F)c(F)c2)C2CCCC2)cc1Cl [Entry 159, N-(2-{5-[3-chloro-4-(methyloxy)phenyl]-3-pyridin-4-yl-1H-1,2,4-triazol-1-yl}ethyl)-N-cyclopentyl-N′-(3,4-difluorophenyl)urea]
6 | ≤ 5.00 | CNc1nccc(-c2nc(C)n(CCN(C(=O)Cc3cccc4ccccc34)C3CCCC3)n2)n1 [Entry 161, N-cyclopentyl-N-(2-{5-methyl-3-[2-(methylamino)pyrimidin-4-yl]-1H-1,2,4-triazol-1-yl}ethyl)-2-naphthalen-1-ylacetamide]
7 | 6.00 to 7.30 | Cc1nc(-c2ccc3nsnc3c2)nn1CCN(C(=O)Cc1cccc2ccccc12)C1CCCC1 [Entry 162, N-{2-[3-(2,1,3-benzothiadiazol-5-yl)-5-methyl-1H-1,2,4-triazol-1-yl]ethyl}-N-cyclopentyl-2-naphthalen-1-ylacetamide]
8 | 5.00 to 6.00 | Cc1nc(-c2ccnc(N3CCOCC3)c2)nn1CCN(C(=O)Cc1cccc2ccccc12)C1CCCC1 [Entry 163, N-cyclopentyl-N-{2-[5-methyl-3-(2-morpholin-4-ylpyridin-4-yl)-1H-1,2,4-triazol-1-yl]ethyl}-2-naphthalen-1-ylacetamide]
9 | 6.00 to 7.30 | Cc1nc(-c2ccnc(NCCN(C)C)c2)nn1CCN(C(=O)Cc1cccc2ccccc12)C1CCCC1 [Entry 164, N-cyclopentyl-N-{2-[3-(2-{[2-(dimethylamino)ethyl]amino}pyridin-4-yl)-5-methyl-1H-1,2,4-triazol-1-yl]ethyl}-2-naphthalen-1-ylacetamide]
10 | 6.00 to 7.30 | Cc1nc(-c2ccnc(Nc3ccccc3)c2)nn1CCN(C(=O)Cc1cccc2ccccc12)C1CCCC1 [Entry 165, N-cyclopentyl-N-(2-{5-methyl-3-[2-(phenylamino)pyridin-4-yl]-1H-1,2,4-triazol-1-yl}ethyl)-2-naphthalen-1-ylacetamide]
11 | > 7.30 | CCNc1cc(-c2nc(C)n(CCN(C(=O)Cc3cccc4ccccc34)C3CCCC3)n2)ccn1 [Entry 166, N-cyclopentyl-N-(2-{3-[2-(ethylamino)pyridin-4-yl]-5-methyl-1H-1,2,4-triazol-1-yl}ethyl)-2-naphthalen-1-ylacetamide]
12 | > 7.30 | CNc1cc(-c2nc(C)n(CCN(C(=O)Cc3cccc4ccccc34)C3CCCC3)n2)ccn1 [Entry 167, N-cyclopentyl-N-(2-{5-methyl-3-[2-(methylamino)pyridin-4-yl]-1H-1,2,4-triazol-1-yl}ethyl)-2-naphthalen-1-ylacetamide]
13 | 6.00 to 7.30 | Cc1nc(-c2ccncc2)nn1CCN(C(=O)Cc1cccc2ccccc12)C1CC1 [Entry 168, N-cyclopropyl-N-[2-(5-methyl-3-pyridin-4-yl-1H-1,2,4-triazol-1-yl)ethyl]-2-naphthalen-1-ylacetamide]
14 | 6.00 to 7.30 | Cc1nc(-c2ccncc2)nn1CCN(C(=O)Cc1cccc2ccccc12)C1CCOCC1 [Entry 171, N-[2-(5-methyl-3-pyridin-4-yl-1H-1,2,4-triazol-1-yl)ethyl]-2-naphthalen-1-yl-N-(tetrahydro-2H-pyran-4-yl)acetamide]
15 | 6.00 to 7.30 | Cc1nc(-c2ccnc(NCc3ccccc3)c2)nn1CCN(C(=O)Cc1cccc2ccccc12)C1CCCC1 [Entry 172, N-cyclopentyl-N-[2-(5-methyl-3-{2-[(phenylmethyl)amino]pyridin-4-yl}-1H-1,2,4-triazol-1-yl)ethyl]-2-naphthalen-1-ylacetamide]
16 | > 7.30 | CCCCNc1cc(-c2nc(C)n(CCN(C(=O)Cc3cccc4ccccc34)C3CCCC3)n2)ccn1 [Entry 173, N-(2-{3-[2-(butylamino)pyridin-4-yl]-5-methyl-1H-1,2,4-triazol-1-yl}ethyl)-N-cyclopentyl-2-naphthalen-1-ylacetamide]
17 | > 7.30 | Cc1nc(-c2ccnc(NCCN3CCOCC3)c2)nn1CCN(C(=O)Cc1cccc2ccccc12)C1CCCC1 [Entry 174, N-cyclopentyl-N-[2-(5-methyl-3-{2-[(2-morpholin-4-ylethyl)amino]pyridin-4-yl}-1H-1,2,4-triazol-1-yl)ethyl]-2-naphthalen-1-ylacetamide]
18 | > 7.30 | COCCNc1cc(-c2nc(C)n(CCN(C(=O)Cc3cccc4ccccc34)C3CCCC3)n2)ccn1 [Entry 175, N-cyclopentyl-N-{2-[5-methyl-3-(2-{[2-(methyloxy)ethyl]amino}pyridin-4-yl)-1H-1,2,4-triazol-1-yl]ethyl}-2-naphthalen-1-ylacetamide]
19 | > 7.30 | Cc1nc(-c2ccnc(N)c2)nn1CCN(C(=O)Cc1cccc2ccccc12)C1CCCC1 [Entry 176, N-{2-[3-(2-aminopyridin-4-yl)-5-methyl-1H-1,2,4-triazol-1-yl]ethyl}-N-cyclopentyl-2-naphthalen-1-ylacetamide]
20 | > 7.30 | Cc1nc(-c2ccncc2)nn1CCN(C(=O)Cc1cccc2ccccc12)C(C)C [Entry 177, N-(1-methylethyl)-N-[2-(5-methyl-3-pyridin-4-yl-1H-1,2,4-triazol-1-yl)ethyl]-2-naphthalen-1-ylacetamide]
21 | > 7.30 | Cc1nc(-c2ccncc2)nn1CCN(C(=O)Cc1cccc2ccccc12)C1CCCCC1 [Entry 179, N-cyclohexyl-N-[2-(5-methyl-3-pyridin-4-yl-1H-1,2,4-triazol-1-yl)ethyl]-2-naphthalen-1-ylacetamide]
22 | 6.00 to 7.30 | Cc1nc(-c2ccncc2)nn1CCN(CC1CCCO1)C(=O)Cc1cccc2ccccc12 (centres unmarked) [Entry 180, N-[2-(5-methyl-3-pyridin-4-yl-1H-1,2,4-triazol-1-yl)ethyl]-2-naphthalen-1-yl-N-(tetrahydrofuran-2-ylmethyl)acetamide]
23 | 6.00 to 7.30 | Cc1nc(-c2ccnc(NC3CCCNC3)c2)nn1CCN(C(=O)Cc1cccc2ccccc12)C1CCCC1 (centres unmarked) [Entry 181, N-cyclopentyl-N-(2-{5-methyl-3-[2-(piperidin-3-ylamino)pyridin-4-yl]-1H-1,2,4-triazol-1-yl}ethyl)-2-naphthalen-1-ylacetamide]
24 | 6.00 to 7.30 | Cc1nc(-c2ccnc(N[C@@H]3CCNC3)c2)nn1CCN(C(=O)Cc1cccc2ccccc12)C1CCCC1 [Entry 182, N-cyclopentyl-N-[2-(5-methyl-3-{2-[(3R)-pyrrolidin-3-ylamino]pyridin-4-yl}-1H-1,2,4-triazol-1-yl)ethyl]-2-naphthalen-1-ylacetamide]
25 | > 7.30 | Cc1nc(-c2ccnc(NCCN3CCCCC3)n2)nn1CCN(C(=O)Cc1cccc2ccccc12)C1CCCC1 [Entry 183, N-cyclopentyl-N-[2-(5-methyl-3-{2-[(2-piperidin-1-ylethyl)amino]pyrimidin-4-yl}-1H-1,2,4-triazol-1-yl)ethyl]-2-naphthalen-1-ylacetamide]
26 | 6.00 to 7.30 | Cc1nc(-c2ccnc(NCc3ccccc3)n2)nn1CCN(C(=O)Cc1cccc2ccccc12)C1CCCC1 [Entry 184, N-cyclopentyl-N-[2-(5-methyl-3-{2-[(phenylmethyl)amino]pyrimidin-4-yl}-1H-1,2,4-triazol-1-yl)ethyl]-2-naphthalen-1-ylacetamide]
27 | 6.00 to 7.30 | Cc1nc(-c2cc(N)nc(Cl)c2)nn1CCN(C(=O)Cc1cccc2ccccc12)C1CCCC1 [Entry 185, N-{2-[3-(2-amino-6-chloropyridin-4-yl)-5-methyl-1H-1,2,4-triazol-1-yl]ethyl}-N-cyclopentyl-2-naphthalen-1-ylacetamide]
28 | 6.00 to 7.30 | Cc1nc(-c2cc(N)nc(N)c2)nn1CCN(C(=O)Cc1cccc2ccccc12)C1CCCC1 [Entry 186, N-cyclopentyl-N-{2-[3-(2,6-diaminopyridin-4-yl)-5-methyl-1H-1,2,4-triazol-1-yl]ethyl}-2-naphthalen-1-ylacetamide]

Row | Compound | pIC50
29 | Cc1nc(-c2ccncc2)nn1CCN(CCN1CCOCC1)C(=O)Cc1cccc2ccccc12 [Entry 160, N-[2-(5-methyl-3-pyridin-4-yl-1H-1,2,4-triazol-1-yl)ethyl]-N-(2-morpholin-4-ylethyl)-2-naphthalen-1-ylacetamide] | ≤ 5.00
30 | Cc1nc(-c2ccncc2)nn1CCN(CCN1CCCC1)C(=O)Cc1cccc2ccccc12 [Entry 169, N-[2-(5-methyl-3-pyridin-4-yl-1H-1,2,4-triazol-1-yl)ethyl]-2-naphthalen-1-yl-N-(2-pyrrolidin-1-ylethyl)acetamide] | ≤ 5.00
31 | Cc1nc(-c2ccncc2)nn1CCN(CCN(C)C)C(=O)Cc1cccc2ccccc12 [Entry 170, N-[2-(dimethylamino)ethyl]-N-[2-(5-methyl-3-pyridin-4-yl-1H-1,2,4-triazol-1-yl)ethyl]-2-naphthalen-1-ylacetamide] | 5.00 to 6.00
32 | Cc1nc(-c2ccncc2)nn1CCN(CCN1CCCCC1)C(=O)Cc1cccc2ccccc12 [Entry 178, N-[2-(5-methyl-3-pyridin-4-yl-1H-1,2,4-triazol-1-yl)ethyl]-2-naphthalen-1-yl-N-(2-piperidin-1-ylethyl)acetamide] | ≤ 5.00
